One test relates to Streptococcus. Nature of the test: Group A Streptococcus viability loss, dose response, counter-screen for streptokinase expression inhibitor project, luminescence, BacTiterGlo (AID 1915).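 Further: potency for reduction of bacterial viability or growth.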 The test is classed as functional, organism-based.
Test [1] in a line: inhibitors of intracellular T. cruzi replication, confirmation, NIH3T3 host cells, beta-gal luminescence (AID 2044).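 Further: intracellular parasites grown in NIH/3T3 mouse fibroblasts as host cells; luminescent beta-galactosidase reporter signal from transgenic T. cruzi replicating inside host cells; inhibitors lower the luminescence signal.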 The test is classed as functional, cell-based.
The target of the next test is Genome polyprotein (dengue virus type 2, UniProt P29990). Nature of the test: Dengue-2 NS5 methyltransferase inhibitors, primary screen, biochemical, confirmation dose response (AID 588689). In kind it is functional.
Genome polyprotein, sequence (P29990 2492-3391 limits assumed): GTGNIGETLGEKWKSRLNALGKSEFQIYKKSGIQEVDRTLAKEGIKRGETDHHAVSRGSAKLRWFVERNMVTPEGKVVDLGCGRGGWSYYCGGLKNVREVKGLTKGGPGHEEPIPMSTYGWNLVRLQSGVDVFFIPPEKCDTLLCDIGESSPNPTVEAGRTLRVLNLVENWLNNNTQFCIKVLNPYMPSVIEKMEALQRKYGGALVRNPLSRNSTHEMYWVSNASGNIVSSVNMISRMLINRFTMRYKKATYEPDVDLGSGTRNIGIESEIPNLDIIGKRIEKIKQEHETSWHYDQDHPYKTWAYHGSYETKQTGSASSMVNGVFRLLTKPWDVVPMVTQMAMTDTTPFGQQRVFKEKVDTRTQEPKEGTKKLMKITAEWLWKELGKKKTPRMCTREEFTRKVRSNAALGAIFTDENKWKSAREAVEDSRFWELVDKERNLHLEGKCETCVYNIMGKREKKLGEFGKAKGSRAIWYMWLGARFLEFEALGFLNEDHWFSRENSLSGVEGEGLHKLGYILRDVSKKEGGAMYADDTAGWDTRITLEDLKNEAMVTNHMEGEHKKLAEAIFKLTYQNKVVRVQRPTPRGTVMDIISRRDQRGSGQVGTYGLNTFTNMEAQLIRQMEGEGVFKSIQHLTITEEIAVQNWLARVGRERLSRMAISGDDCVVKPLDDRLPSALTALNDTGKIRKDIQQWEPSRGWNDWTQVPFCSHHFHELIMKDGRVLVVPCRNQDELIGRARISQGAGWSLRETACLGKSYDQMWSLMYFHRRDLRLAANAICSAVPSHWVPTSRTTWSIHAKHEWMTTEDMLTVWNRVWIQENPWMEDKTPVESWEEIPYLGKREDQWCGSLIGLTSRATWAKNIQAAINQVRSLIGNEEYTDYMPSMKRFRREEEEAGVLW
In a further test the target is T1, Bcl-2-like protein 10 (Homo sapiens, UniProt Q9HD36).
T1 sequence (Q9HD36 whole entry): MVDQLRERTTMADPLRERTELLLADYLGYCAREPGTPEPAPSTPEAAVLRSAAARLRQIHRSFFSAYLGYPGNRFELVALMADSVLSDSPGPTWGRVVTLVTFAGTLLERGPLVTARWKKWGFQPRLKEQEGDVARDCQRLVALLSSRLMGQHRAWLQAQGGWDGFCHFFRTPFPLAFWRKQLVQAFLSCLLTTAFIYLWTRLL
The test can be described thus: displacers of TR3 peptide from Bcl-B, primary screen, selectivity assay for Bfl-1 inhibitor project, biochemical, fluorescence polarization, FITC-TR3 peptide (AID 748). On the technique in general: Fluorescence polarisation rises when a labelled molecule tumbles more slowly, as on binding a larger partner.

In test [2] the target is T2, Mannose-6-phosphate isomerase (Homo sapiens, UniProt P34949).
T2 sequence (P34949 whole entry): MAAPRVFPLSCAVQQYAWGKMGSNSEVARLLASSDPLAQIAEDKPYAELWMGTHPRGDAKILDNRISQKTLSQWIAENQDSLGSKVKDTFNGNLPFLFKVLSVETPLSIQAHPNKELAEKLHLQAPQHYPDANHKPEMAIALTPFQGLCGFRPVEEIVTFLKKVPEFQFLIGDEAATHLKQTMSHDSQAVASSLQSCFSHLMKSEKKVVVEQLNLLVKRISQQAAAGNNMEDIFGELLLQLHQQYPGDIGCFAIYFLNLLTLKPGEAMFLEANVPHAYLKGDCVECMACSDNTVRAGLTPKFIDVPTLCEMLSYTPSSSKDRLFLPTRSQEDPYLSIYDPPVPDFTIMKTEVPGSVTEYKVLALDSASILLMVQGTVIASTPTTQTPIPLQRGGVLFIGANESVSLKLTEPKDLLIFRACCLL
Nature of the test: human PMI inhibitors, high substrate, primary screen, biochemical, fluorescence intensity, high mannose 6-phosphate (AID 1220).

A short description of test [3]: C. albicans growth with fluconazole, confirmation, fluorescence, retest (AID 2467). The test is classed as functional, cell-based.
Test [4] has as its target T3, Type-1 angiotensin II receptor (Homo sapiens, UniProt P30556).
T3 sequence (P30556 whole entry): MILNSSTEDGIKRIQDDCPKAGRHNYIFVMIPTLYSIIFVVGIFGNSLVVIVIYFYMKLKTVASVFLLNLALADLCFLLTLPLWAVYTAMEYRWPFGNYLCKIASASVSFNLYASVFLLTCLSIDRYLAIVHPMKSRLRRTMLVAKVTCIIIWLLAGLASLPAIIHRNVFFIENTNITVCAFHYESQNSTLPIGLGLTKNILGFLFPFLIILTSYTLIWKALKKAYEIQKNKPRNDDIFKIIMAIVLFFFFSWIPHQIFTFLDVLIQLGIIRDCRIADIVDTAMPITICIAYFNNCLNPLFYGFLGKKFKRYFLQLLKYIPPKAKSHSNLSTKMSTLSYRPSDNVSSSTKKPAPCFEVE
Nature of the test: AT1 receptor antagonists, dose response, selectivity assay for APJ receptor antagonist project, cell-based, uHTS hits (AID 463214).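 Further: antagonist potency against angiotensin II stimulated AT1 response.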 The test is classed as functional.

Test [5] can be described thus: inhibitors of SNCA 5'UTR-driven reporter translation, confirmation, H4 neuroglioma cells, luminescence (AID 1988). In kind it is functional, cell-based.
The target in test [6] is T4, Ubiquitin-conjugating enzyme E2 N (Homo sapiens, UniProt P61088).
T4 sequence (P61088 whole entry): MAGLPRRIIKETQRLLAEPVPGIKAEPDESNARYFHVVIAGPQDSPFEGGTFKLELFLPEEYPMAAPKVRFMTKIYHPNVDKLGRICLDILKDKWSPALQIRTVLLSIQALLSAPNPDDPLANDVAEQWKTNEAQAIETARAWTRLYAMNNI
The test is classed as functional.

Test [7] in a line: inhibitors of firefly luciferase expression or activity, dose response, H4 neuroglioma cells, luminescence (AID 1990). The test is classed as functional, cell-based.
The target of the next test is Beta-galactosidase (Escherichia coli, UniProt Q8VNN2). The test can be described thus: PubChem AID 485352. In kind it is functional.
Beta-galactosidase, sequence (Q8VNN2 whole entry): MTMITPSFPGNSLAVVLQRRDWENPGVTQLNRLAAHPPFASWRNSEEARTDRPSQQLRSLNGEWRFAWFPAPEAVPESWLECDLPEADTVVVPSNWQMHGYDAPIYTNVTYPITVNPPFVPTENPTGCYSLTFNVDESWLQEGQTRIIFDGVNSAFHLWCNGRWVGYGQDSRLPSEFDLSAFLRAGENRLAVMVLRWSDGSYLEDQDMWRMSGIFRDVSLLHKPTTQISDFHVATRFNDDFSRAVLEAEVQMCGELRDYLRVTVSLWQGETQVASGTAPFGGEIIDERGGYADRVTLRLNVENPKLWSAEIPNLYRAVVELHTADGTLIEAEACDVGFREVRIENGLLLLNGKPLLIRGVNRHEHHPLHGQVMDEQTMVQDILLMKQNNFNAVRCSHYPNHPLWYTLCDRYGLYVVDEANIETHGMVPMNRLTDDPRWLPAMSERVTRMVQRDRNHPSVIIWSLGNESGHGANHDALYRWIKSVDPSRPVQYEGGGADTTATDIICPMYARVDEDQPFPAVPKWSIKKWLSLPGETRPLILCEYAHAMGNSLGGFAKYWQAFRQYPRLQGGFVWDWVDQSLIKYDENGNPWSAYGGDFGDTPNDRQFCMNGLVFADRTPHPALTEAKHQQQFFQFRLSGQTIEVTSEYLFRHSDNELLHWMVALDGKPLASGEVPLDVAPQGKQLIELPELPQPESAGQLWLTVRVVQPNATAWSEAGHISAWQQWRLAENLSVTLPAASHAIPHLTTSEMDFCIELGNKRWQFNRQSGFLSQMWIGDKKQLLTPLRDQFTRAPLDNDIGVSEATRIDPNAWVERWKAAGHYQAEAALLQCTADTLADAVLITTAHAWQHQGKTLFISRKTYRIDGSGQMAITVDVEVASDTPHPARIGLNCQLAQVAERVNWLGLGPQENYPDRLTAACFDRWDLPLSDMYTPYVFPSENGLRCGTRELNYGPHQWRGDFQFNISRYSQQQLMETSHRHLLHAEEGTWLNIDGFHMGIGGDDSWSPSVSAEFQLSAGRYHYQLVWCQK
The next test deals with HepG2. Nature of the test: HepG2 cell cytotoxicity, dose response, cytotoxicity control, cherry-picks, set 2 (AID 687002). The test is classed as functional, cell-based. The note with it: Homo sapiens.
In test [8] the target is T5, Sentrin-specific protease 6 (Homo sapiens, UniProt Q9GZR1).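 Further: Luminescence-based dose-response confirmatory assay of SENP6 inhibition, following up an ultra-high-throughput screen.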
T5 sequence (Q9GZR1 whole entry): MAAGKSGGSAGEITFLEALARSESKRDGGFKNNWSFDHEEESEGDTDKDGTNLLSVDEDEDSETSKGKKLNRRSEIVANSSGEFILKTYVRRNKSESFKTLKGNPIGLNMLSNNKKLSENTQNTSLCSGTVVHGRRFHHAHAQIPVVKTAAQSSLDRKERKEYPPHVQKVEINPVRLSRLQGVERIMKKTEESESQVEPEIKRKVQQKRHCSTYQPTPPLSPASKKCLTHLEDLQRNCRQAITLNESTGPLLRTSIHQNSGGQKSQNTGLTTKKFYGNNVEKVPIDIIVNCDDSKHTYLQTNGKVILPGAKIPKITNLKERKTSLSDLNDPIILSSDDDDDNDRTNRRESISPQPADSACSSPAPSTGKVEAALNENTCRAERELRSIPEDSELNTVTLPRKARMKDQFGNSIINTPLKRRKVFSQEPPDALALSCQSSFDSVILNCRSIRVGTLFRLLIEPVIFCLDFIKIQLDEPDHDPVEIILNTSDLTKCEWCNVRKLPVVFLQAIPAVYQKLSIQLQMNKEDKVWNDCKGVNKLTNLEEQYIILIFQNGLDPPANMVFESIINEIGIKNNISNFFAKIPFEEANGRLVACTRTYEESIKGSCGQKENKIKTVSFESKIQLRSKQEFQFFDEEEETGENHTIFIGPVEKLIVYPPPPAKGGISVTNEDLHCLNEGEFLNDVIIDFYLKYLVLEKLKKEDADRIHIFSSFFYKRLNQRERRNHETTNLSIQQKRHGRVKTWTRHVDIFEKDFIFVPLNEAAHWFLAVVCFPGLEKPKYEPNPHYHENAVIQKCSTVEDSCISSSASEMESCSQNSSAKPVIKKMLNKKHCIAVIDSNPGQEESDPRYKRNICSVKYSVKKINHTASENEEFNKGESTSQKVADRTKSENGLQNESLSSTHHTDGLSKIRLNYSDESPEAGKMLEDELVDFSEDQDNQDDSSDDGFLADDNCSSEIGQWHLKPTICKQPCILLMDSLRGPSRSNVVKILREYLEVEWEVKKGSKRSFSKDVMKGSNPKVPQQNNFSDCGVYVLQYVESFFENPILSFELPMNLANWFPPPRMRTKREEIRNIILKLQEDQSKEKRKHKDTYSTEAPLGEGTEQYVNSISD
In kind it is functional.

Calls of active or inactive are those of the source.

On to `CCCCCCCCCCOC(=O)Cn1c(COc2ccccc2)[n+](C)c2ccccc21`, for which the results for the EC50 (in the test on Streptococcus; in test [1]) were 7.89 µM (active) and 1.6 µM (active), respectively.
Regarding `COc1cc(-c2nnc(SCc3cc(=O)oc4cc(O)c(O)cc34)o2)cc(OC)c1OC`, the half-inhibitory concentration (IC50) (as a rule, the concentration at which inhibition is half-maximal) at Genome polyprotein was > 100 µM (active); at Bcl-2-like protein 10, 0.493 µM (active); in test [2] it was > 50 µM (not active). Moreover, the EC50 (usually the concentration at which the effect is half-maximal) in test [3] is recorded as > 38 µM (not active).
For `CCOC(=O)c1c(-c2ccc(-c3ccccc3)cc2)csc1NC(=O)CNCCN(C)C`, the IC50 in test [4] is 9.33 µM (active); in [6] it was 10.1 µM (active). The figures for the concentration for a half-maximal effect (EC50) (in test [5]; in [7]; on Beta-galactosidase) were 9.16 µM (active), > 120 µM (not active) and > 40 µM (inactive), respectively. In addition, in the test with HepG2, the concentration at half-maximal activity (AC50) (in general, the concentration giving half of the maximal activity seen) is 18.4 µM (active).
As to `N#Cc1c(NC(=O)c2ccc(Br)o2)n(-c2ccccc2)c2nc3ccccc3nc12`, the half-maximal inhibitory concentration (IC50) in test [8] is 2.03 µM (active).

Values taken from ChEMBL document CHEMBL1201862, “PubChem BioAssay data set” (2004).
